# Laboratory results from US20020127287A1, “Treatment of lyso paf-mediated disorders with lyso paf or paf antagonists and procedure for determining their efficacy” (priority 1990, published 2002).
# Values joined by “and” are separate entries in the source; they are usually repeats but may differ in a detail not shown here. Equal entries are not always repeated. Marks after values point to notes of the source that are not given here.
# How the values were obtained:
# [1] = system: endothelial cell; assay: [^3H]paf binding to endothelial cells
# [2] = target: T1, paf receptors on eosinophils (Homo sapiens, UniProt P25105); assay: [^3H]paf binding to intact human eosinophils
# T1 construct: endogenous in cells; host or cells: intact human blood eosinophils (about 96% pure)
# T1 sequence (P25105 whole entry): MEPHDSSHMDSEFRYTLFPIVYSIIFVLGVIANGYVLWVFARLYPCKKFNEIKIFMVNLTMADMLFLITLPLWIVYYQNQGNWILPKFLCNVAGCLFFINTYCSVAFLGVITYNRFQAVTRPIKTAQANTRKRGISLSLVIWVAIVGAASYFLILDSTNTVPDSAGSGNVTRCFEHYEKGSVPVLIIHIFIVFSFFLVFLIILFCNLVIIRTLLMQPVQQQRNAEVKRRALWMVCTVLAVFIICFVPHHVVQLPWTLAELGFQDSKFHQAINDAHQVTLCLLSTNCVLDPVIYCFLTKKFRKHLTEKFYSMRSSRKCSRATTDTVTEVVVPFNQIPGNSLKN
# Procedure: Eosinophils were also prepared under sterile conditions. Blood (400 ml) was mixed with 10% (v/v) dextran. The supernatant was carefully deposited on a metrizoate/ficoll suspension (d=1.148) after sedimentation of red blood cells and centrifuged (400×g: 40 min). Erythrocyte lysis was performed by adding 3 v. of distilled water for 40 sec, followed by 1 v. NaCl (3.5%, w/v). Cells were suspended in 500 μl pH 7.4 Tyrode's buffer, centrifuged (1900 rpm×10 min) and resuspended (5×10^6 cells/ml) in Tyrode's (0.25% BSA) without Ca^2+. The eosinophils fraction at 1×10^6 cells/ml contained 96±5% eosinophils, 3±3% neutrophils, 1±2% mononuclear cells and no free platelets (mean±s.d., n=3).
# (§2) Binding studies were performed using, for example, intact neutrophils (PMN) or intact human blood eosinophils. PMN (2.5×10^6) or eosinophils (2.5×10^5) were suspended in 500 μl Tyrode's buffer supplemented with 1.3 mM CaCl2, 1 mM MgCl2 and 0.25% (v/v) fatty acid-free bovine serum albumin (BSA, w/v) were incubated with [^3H]paf (0.325-6.5 nM) either for 30 min at 20° C. or for 20 hrs at 4° C. Non-specific binding was assessed with the unlabeled ligands either paf (500 nM) or the receptor antagonist WEB 2086 (1 μM or 400 nM).
# Eosinophils were added to Tyrode's (0.25% BSA, 1.3 mM CaCl2, 1 mM MgCl2) containing [3H]paf (0.325-6.5 nM) in the absence or presence of unlabeled paf, lyso paf, enantio-paf or lyso-phosphatidylcholine (LPC) (5, 10, 50, 500 nM) and/or the specific paf receptor antagonist WEB 2086 (400 nM). After the binding procedure, cells were separated from their suspending medium by filtration in a millipore vacuum system with GF/C filters. Filters were washed with 10 ml Tyrode's buffer at 4° C. and radioactivity was assessed by scintillation. Cell-bound radioactivity on the filters after subtraction of blanks (filter-bound radioactivity in the absence of cells) was expressed in fmol [^3H]paf bound per 2.5×10^6 PMN or 2.5×10^5 eosinophils.
# [3] = target: T2, paf receptors on neutrophils (PMN) (Homo sapiens, UniProt P25105); assay: [^3H]paf binding to intact human neutrophils (PMN)
# T2 construct: Neutrophils (PMN) were prepared from venous blood (40 ml) from normal donors; endogenous in cells; host or cells: intact neutrophils (PMN) from venous blood of normal donors
# T2 sequence (P25105 whole entry): as above
# Procedure: (§3) Neutrophils (PMN) were prepared from venous blood (40 ml) from normal donors, anticoagulated with citric acid dextrose (7:1, v/v) was sedimented for 30 to 45 min in gelatin 0.3% final (Plasmagel®). Twenty ml of supernatant were layered on 10 ml Ficoll Hypaque (d=1.077) and centrifuged (400×g, 20 min, 20° C.). The cell pellet containing PMN (95%) was resuspended in 500 μl Tyrode's buffer (pH=7.4). Erythrocyte lysis was performed by adding 3 volumes of distilled water for 40 sec. followed by 1 volume NaCl (3.5%, w/v). PMN were then washed twice in Tyrode's buffer (centrifugation at 370×g at 20° C. for 10 min). Cell concentration was adjusted to 5×10^7 per ml.
# as §2
# In a second set of experiments, [^3H]paf binding was performed by adding 3.25 nM [^3H]paf to PMN, simultaneously with low dose (5 to 50 nM) of paf, lyso paf, the enantiomer of paf or 2-lyso phosphatidylcholine (LPC) for 30 min at 20° C. [^3H]paf binding was also measured in the presence of the phorbol ester 4-phorbol-12-myristate-13-acetate (PMA, 1 to 16 nM) either added simultaneously with [^3H]paf or preincubated 15 min at 37° C. previously. […] After the binding procedure, cells were separated from their suspending medium by filtration in a millipore vacuum system with GF/C filters. Filters were washed with 10 ml Tyrode's buffer at 4° C. and radioactivity was assessed by scintillation. Cell-bound radioactivity on the filters after subtraction of blanks (filter-bound radioactivity in the absence of cells) was expressed in fmol [^3H]paf bound per 2.5×10^6 PMN or 2.5×10^5 eosinophils.
# [4] = system: lyso paf receptors on neutrophils (PMN); assay: [^3H]lyso paf binding to neutrophils (PMN); set-up: species or system human; settings: for effect of unlabeled ligand on [^3H]lyso paf binding: excess unlabeled paf or lyso paf 500 nM, WEB 2086 1 μM, 20° C.
# Procedure: as §3
# The binding of [^3H]lyso paf (0.325-0.5 nM) was measured after 30 min incubation at 20° C. in the absence or presence of an excess of unlabeled lyso paf (500 nM), paf (500 nM) or WEB 2086 (1 μM). The effect of low dose paf (5 nM) on the binding of [^3H]lyso paf was also investigated. […] After the binding procedure, cells were separated from their suspending medium by filtration in a millipore vacuum system with GF/C filters. Filters were washed with 10 ml Tyrode's buffer at 4° C. and radioactivity was assessed by scintillation. Cell-bound radioactivity on the filters after subtraction of blanks (filter-bound radioactivity in the absence of cells) was expressed in fmol [^3H]paf bound per 2.5×10^6 PMN or 2.5×10^5 eosinophils.
# [5] = system: PMN; assay: cytosolic free calcium (fura-2) in PMN; type: cell-based, human
# Procedure: (§1) The concentration of cytosolic free calcium [Ca^2+]i was measured using the [Ca^2+]i indicator fura-2-acetoxymethyl ester (fura-2). […] The spectrofluorophotometer was programmed to shuttle between the two excitation wavelengths of 340 and 380 nm every 5 sec while keeping the emission wavelength of 505 nm. […] Background values were subtracted from all data. The intracellular Ca^2+ was calculated with the formula [[…] is KD of the fura-2 multiplied with the quotient of the fluorescence at 380 nm from the minimal and the maximal [Ca^2+]i fluorescence.
# [6] = system: eosinophils; assay: cytosolic free calcium (fura-2) in eosinophils; type: cell-based, human; settings: EGTA 2 mM
# Procedure: as §1
# [7] = system: endothelial cell prostacyclin release; assay: endothelial cell prostacyclin release (6-keto-PGF1-alpha); type: cell-based
# [8] = system: acetylhydrolase; assay: acetylhydrolase activity, kinetic constants; type: biochemical, human; settings: excess AAGPC
# Procedure: Acetylhydrolase activity was measured in lysates of resting platelets or platelets stimulated with thrombin (0.5 IU/ml, 1 min, 37° C.), in supernatants of thrombin-activated platelets with or without acid-treated (inactivation of acetylhydrolase) plasma and in native plasma. Samples were incubated for 10 min at 37° C. in the presence of 0.1 μCi [^3H]acetyl paf and concentrations of unlabeled paf varying from 5 to 35 μM. The microenvironment modulates the acetylhydrolase indicating the origin of plasma acetylhydrolase from activated platelets.
# [9] = system: human platelets; assay: acetylhydrolase release from activated platelets; type: cell-based; settings: Thrombin 0.5 IU/ml; for acetylhydrolase release: Paf 500 nM
# Procedure: Results are expressed as mean±S.D. or S.E. and statistics were performed using the “Mann Whitney” test (n=3, n=5 or n=6 as indicated).
# [10] = system: U 937 cells; assay: cAMP levels of U 937 cells; type: cell-based; settings: cholesterol 60 μg/ml, 24 hrs
# Procedure: U 937 cells were grown in stationary suspension culture in RPMI 1640 containing 10% fetal calf serum (FCS) and 2 mM L-glutamine at 37° C. in a humidified atmosphere of 5% CO2 and 95% air. The cells were diluted with fresh medium (1/10, v/v) twice a week. After three days in culture, U 937 cells were centrifuged (1000×G for 10 min) and incubated for 24 hrs in RPMI 1640 medium containing 10% CPSR 1 (delipidated FCS) and 2 mM L-glutamine. Subsequently the cells were incubated in the delipidated FCS medium containing cholesterol (10-60 μg/ml), as compared with solvent alone (ethanol, 0.5% v/v, final concentration) for (2, 4 or 24 hrs).
# Cyclic AMP in supernatants from cholesterol-treated and control cells, were measured by the Rianen [^125I]cAMP-RIA Kit. Briefly, cholesterol (60 μg/ml, 24 hrs) or cholesterol vehicle (ethanol) were added after 24 hrs cell incubation in delipidated FCS medium. Cells were subsequently washed three times and resuspended (5×10^6, final concentration) in Hanks Hepes (HH)-buffer, pH 7.4 with ascorbinic acid (10 mM) and cAMP-phosphodiesterase inhibitor IBMX (1 mM). Cell suspension (100 μl) was added to 400 μl of the cAMP buffer for 30 min at 20° C. […] Values are from one experiment (representative of three) expressed as pmol cAMP per 10^6 cells. Total proteins were measured by standard procedure.
# [11] = Add. 5 nM, [^3H]paf […], 20° C., 30 min, WEB 2086 1 μM
compound,measurement,setting,value
COc1ccc(SCC(=S)N2CCc3c(sc4c3C(c3ccccc3Cl)=NCc3nnc(C)n3-4)C2)cc1OC [BN 50 739],inhibited endothelial cell bound [^3H]paf,[1]; 20 μM,5.8 fmol
"CCCCCCCCCCCCCCCCCCOC[C@@H](O)COP(=O)([O-])OCC[N+](C)(C)C [lyso paf, 1-octadecyl-sn-glycero-3-phosphocholine]",interference with [3H]paf binding,[2],did not interfere
same,specific [^3H]paf binding,"[2]; addition 5 nM, WEB 2086 400 nM, 20° C., 30 min",1.5 ± 1.7 fmol per 2.5×10^5 cells
same,specific [^3H]paf binding,"[2]; addition 10 nM, WEB 2086 400 nM, 20° C., 30 min",1.2 ± 1.6 fmol per 2.5×10^5 cells
same,specific [^3H]paf binding,"[2]; addition 50 nM, WEB 2086 400 nM, 20° C., 30 min",4.4 ± 3.7 fmol per 2.5×10^5 cells
same,[^3H]paf binding,[3]; [11],354 ± 20 fmol [^3H]paf bound per 2.5×10^6 PMN
same,[^3H]paf binding,"[3]; Add. 10 nM, [^3H]paf […], 20° C., 30 min, WEB 2086 1 μM",243 ± 16 fmol [^3H]paf bound per 2.5×10^6 PMN
same,[^3H]paf binding,"[3]; Add. 50 nM, [^3H]paf […], 20° C., 30 min, WEB 2086 1 μM",240 ± 18 fmol [^3H]paf bound per 2.5×10^6 PMN
same,effect of unlabeled ligand on [^3H]lyso paf binding,[4],inhibited
same,cytoplasmic Ca^2+ flux in response to agonist,"[5]; 1 to 500 nM, CaCl2 1.3 mM or EGTA 2 mM",induced neither [Ca^2+]i entry nor mobilization
"CCCCCCCCCCCCCC(=O)O[C@@H]1[C@@H](C)[C@@]2(O)[C@@H](C=C(CO)C[C@]3(O)C(=O)C(C)=C[C@@H]23)[C@@H]2C(C)(C)[C@]12OC(C)=O [PMA, phorbol-12-myristate-13-acetate]",[^3H]paf binding,"[3]; PMA 1 nM, preincubation 0 min at 37° C.",385 fmol [^3H]paf bound per 2.5×10^6 PMN
same,[^3H]paf binding,"[3]; PMA 1 nM, preincubation 15 min at 37° C.",413 fmol [^3H]paf bound per 2.5×10^6 PMN
same,[^3H]paf binding,"[3]; PMA 16 nM, preincubation 0 min at 37° C.",219 fmol [^3H]paf bound per 2.5×10^6 PMN
same,[^3H]paf binding,"[3]; PMA 16 nM, preincubation 15 min at 37° C.",171 fmol [^3H]paf bound per 2.5×10^6 PMN
CC(=O)Oc1ccccc1C(=O)O.NCCCCC(N)C(=O)O [Lysine aspirin],"endothelial cell bound [^3H]paf, % of the total binding",[1],177% and 198%
"Cc1nnc2n1-c1sc(CCC(=O)N3CCOCC3)cc1C(c1ccccc1Cl)=NC2 [WEB 2086, 3-(4-(2-chlorophenyl)-9-methyl-6H-thieno(3,2-f) (1,2,4)triazolo-(4,3-a)-(1,4)diazepine-2-yl)-1-(4-morpholinyl)-1-propanone]","specific [^3H]paf binding, plateau values","[2]; 20° C., 30 min, WEB 2086 400 nM, 3 experiments",25.8 ± 8.1 fmol
same,specific [^3H]paf binding,"[2]; 20° C., 30 min, WEB 2086 400 nM, 3 other experiments, no inhibitory effect",4.3 ± 3.3 fmol
same,"specific [^3H]paf binding, maximal plateau values","[2]; 20 hrs at 4° C., assessed with unlabeled paf 500 nM or WEB 2086 400 nM",14.8±5.1 fmol per 2.5×10^5 cells
same,specific [^3H]paf binding,"[2]; addition 0 nM, WEB 2086 400 nM, 20° C., 30 min",15.1 ± 8.0^1) fmol per 2.5×10^5 cells
same,increased phospholipid binding (lysine aspirin) antagonized,[1],antagonized
same,effect of excess unlabeled ligand on [^3H]paf binding,"[3]; paf 500 nM, WEB 2086 1 μM",inhibited
same,effect on paf-mediated [Ca^2+]i rise,[6],competitively inhibited
same,effect of unlabeled ligand on [^3H]lyso paf binding,[4],inefficient
same,binding of […] [^3H]lyso paf,[4]; paf 5 nM with WEB 2086 1 μM,212.0±6.4 fmol/2.5×10^6 PMN
same,6-keto-PGF1-alpha,"[7]; 100 nM WEB 2086, increased from 127±3",145±11 pg per ml
same,effect on paf-induced Ca^2+ flux,"[5]; WEB 2086 1 μM, 3 min preincubation",shifted to the right the paf dose-response curve
CCCCCCCCCCCCCCCCCCOC[C@H](COP(=O)([O-])OCC[N+](C)(C)C)OC(C)=O [[^3H]paf] [1-O-[^3H]-octadecyl-2-acetyl-sn-glycero-3-phosphocholine],binding sites per eosinophil,[2],85×10^3 sites per eosinophil
same,Bmax,[2]; 20 hrs at 4° C.,35.4 fmol per 2.5×10^5 cells
same,Kd,"[2]; 20 hrs at 4° C., read-out: binding affinity (Kd) on eosinophils",5.5 nM
same,Kd,[3]; 4° C.,0.44 nM
same,total binding of [^3H]paf,[3]; 4° C.,157.0±27.4 fmol per 2.5×10^6 cells
same,total binding of [^3H]paf,[3]; 20° C.,310.5±13.0 fmol per 2.5×10^6 cells
"CCCCCCCCCCCCCCCCCCNC(=O)OCC(COP(=O)([O-])OCC[n+]1ccsc1)OC (racemic) [CV 3988, rac-3-(N-n-octadecylcarbamoyloxy)-2-methoxypropyl 2-tiazolioethyl phosphate]",increased phospholipid binding (lysine aspirin) antagonized,[1],antagonized
CC1C(=O)OC2C(O)C34C5CC(C(C)(C)C)C36C(OC(=O)C6O)OC4(C(=O)O5)C12O (stereo not shown) [BU 52021],endothelial cell prostacyclin release,"[7]; 10 μM, increased from 50±2",126±10 pg per ml
"CCCCCCCCCCCCCCCCOCC(COP(=O)([O-])OCC[N+](C)(C)C)OC(=O)CCCCCCCCCCCCCCC (stereo not shown) [AAGPC, 1-O-hexadecyl-2-palmitoyl-GPC]",inhibition of acetylhydrolase activity,[8],not inhibited
Thrombin,released of the total acetylhydrolase,"[9]; paf 500 nM, mean±S.E., n=3",17.2±3.1%
same,acetylhydrolase release,[9]; stimulation 0 sec,2.2 ± 0.9 percentage of the total content of acetylhydrolase
same,acetylhydrolase release,[9]; stimulation 15 sec,8.5 ± 0.7 percentage of the total content of acetylhydrolase
same,acetylhydrolase release,[9]; stimulation 30 sec,13.1 ± 3.9 percentage of the total content of acetylhydrolase
same,acetylhydrolase release,[9]; stimulation 60 sec,12.8 ± 5.1 percentage of the total content of acetylhydrolase
same,acetylhydrolase release,[9]; stimulation 120 sec,10.9 ± 3.1 percentage of the total content of acetylhydrolase
same,acetylhydrolase release,[9]; stimulation 180 sec,17.9 ± 2.6 percentage of the total content of acetylhydrolase
same,acetylhydrolase release,[9]; stimulation 300 sec,17.2 ± 3.1 percentage of the total content of acetylhydrolase
2-lyso phosphocholine [LPC],interference with [3H]paf binding,[2],did not interfere
same,[^3H]paf binding,[3]; [11],322 ± 22 fmol [^3H]paf bound per 2.5×10^6 PMN
"CC(C)CCC[C@@H](C)[C@H]1CC[C@H]2[C@@H]3CC=C4C[C@@H](O)CC[C@]4(C)[C@H]3CC[C@]12C [Cholesterol, cholesterol]",release of cAMP levels,[10],increased
